System: Liver Injuries Induced by CCl4
Test: Liver injuries induced by CCl4 in mice (GSP, AST/ALT, HAI)
Format: in vivo
Method: In the normal control, animals were administered with normal saline by intraperitoneal injection. In the control group of CCl4 induced liver injuries, animals were intraperitoneally injected with 10 ml/kg CCl4 (40% in corn oil) to induce hepatotoxicity. In the experimental group, animals were intraperitoneally injected with 10 ml/kg CCl4 (40% in corn oil) to induce hepatotoxicity, and 4 hours later, different ingredients of the present invention were administered by tube feeding. Blood was collected from the mice before administration with the ingredients of the present invention or at 24 hours after administration with the ingredients of the present invention for AST/ALT assays. Finally, animals were sacrificed at day 2 and blood were collected for AST/ALT assay and histological analysis was performed.
On the other hand, other experimental groups of mice were fed with the ingredients of the present invention for 12 weeks and the mice were subjected to GSP tests.
Liver damage is quantified by measuring plasma AST and ALT activity. AST and ALT are common indicators of hepatotoxicity and are measured by using the Synchron LXi 725 system (Beckman Instruments, U.S.).
Following scarification of the rats, histological analysis was performed. Liver samples were fixed with 10% phosphate-buffered formalin, dehydrated an embedded in paraffin, Sections were prepared in 5 μm thickness and then stained with hematoxylin and eosin and subjected to Periodic acid Schiff stain (PAS). The stained sections were observed under the optic microscope.
After the study was completed, all rats were subjected to GSP test. Rats were i.v. injected with 0.4 g/ml BW galactose solution 0.5 g/kg within 30 seconds and one blood sample was collected at 5, 10, 15, 30, 45 and 60 minutes post injection from the tail vein. Colorimetric galactose dehydrogenase is used to quantify the concentration of galactose and the test concentration ranges from 50 to 1,000 μg/ml. The within-day variation of each concentration is calculated using standard deviation and coefficient of variation (CV) and the maximum allowable coefficient of variation is 10% CV, whereas day-to-day variation is examined by comparing the slope and intercept of calibration curves. The GSP is the blood galactose concentration obtained 60 seconds after stopping the 30-second injection.
All data are represented in mean±standard deviation (SD) and the results are calculated using ANOVA to determine the significance. Statistical Package of the Social Science program (Version 13, SPSS Inc.) is used for calculations followed by post hoc test to examine the least significant difference for multiple comparisons so as to confirm the significant differences between groups and the average difference between groups was significant p<0.05.

[1] = CCl4-induced liver injuries, dose less than or equivalent to 100 mg per person

Work on `OC[C@@H](O)[C@@H](O)[C@H](O)[C@H](O)CO` [Mannitol] yielded an ALT [1] of 77 ± 22 IU/L, an AST [1] of 91 ± 28 IU/L and a GSP [1] of 290 ± 78 mg/L. The “Total HAI score” value [1] was 0.8 ± 0.5 and the “effect on CCl4-induced liver injuries” value (mice, CCl4) was “liver injuries can be improved”.

From patent publication US20240335404A1, “SUBSTITUTED ESTERS CONTAINING POLYOLS AND SACCHARIDES FOR TREATING HEPATOTOXICITY AND FATTY LIVER DISEASES” (SINEW PHARMA INC., priority 2015, published 2024)
